According to PubChem BioAssay AID2060483 (Molecular Pharmacology Branch, DTP, NCI, 2025):

System: K24384-001-R-PDC complex spheroids, viability
Assay: Anticancer human tumor K24384-001-R-PDC patient-derived pancreatic adenocarcinoma cell line growth inhibition [GQUAD]
Conditions: for IC50: curve of first compound; for viability, T/C: stronger effect = lower value
How it was run: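 Multi-cell-type spheroids of tumor cells with HUVEC and mesenchymal stem cells, treated with drug combinations. Concentrations descend in half-log steps from near clinical Cmax, or from 10 microM where Cmax is unknown; viability read-out.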

[1] = second compound 0.0316 µM, first compound 0.0316 µM
[2] = second compound 0.0316 µM, first compound 0.1 µM
[3] = second compound 0.0316 µM, first compound 0.316 µM
[4] = second compound 0.0316 µM, first compound 1 µM
[5] = second compound 0.0316 µM, first compound 3.16 µM
[6] = second compound 0.0316 µM, first compound 10 µM
[7] = second compound 0.1 µM, first compound 0.0316 µM
[8] = second compound 0.1 µM, first compound 0.1 µM
[9] = second compound 0.1 µM, first compound 0.316 µM
[10] = second compound 0.1 µM, first compound 1 µM
[11] = second compound 0.1 µM, first compound 3.16 µM
[12] = second compound 0.1 µM, first compound 10 µM
[13] = second compound 0.316 µM, first compound 0.0316 µM
[14] = second compound 0.316 µM, first compound 0.1 µM
[15] = second compound 0.316 µM, first compound 0.316 µM
[16] = second compound 0.316 µM, first compound 1 µM
[17] = second compound 0.316 µM, first compound 3.16 µM
[18] = second compound 0.316 µM, first compound 10 µM
[19] = second compound 1 µM, first compound 0.0316 µM
[20] = second compound 1 µM, first compound 0.1 µM
[21] = second compound 1 µM, first compound 0.316 µM
[22] = second compound 1 µM, first compound 1 µM
[23] = second compound 1 µM, first compound 3.16 µM
[24] = second compound 1 µM, first compound 10 µM
[25] = second compound 3.16 µM, first compound 0.0316 µM
[26] = second compound 3.16 µM, first compound 0.1 µM
[27] = second compound 3.16 µM, first compound 0.316 µM
[28] = second compound 3.16 µM, first compound 1 µM
[29] = second compound 3.16 µM, first compound 3.16 µM
[30] = second compound 3.16 µM, first compound 10 µM
[31] = second compound 10 µM, first compound 0.0316 µM
[32] = second compound 10 µM, first compound 0.1 µM
[33] = second compound 10 µM, first compound 0.316 µM
[34] = second compound 10 µM, first compound 1 µM
[35] = second compound 10 µM, first compound 3.16 µM
[36] = second compound 10 µM, first compound 10 µM
[37] = second compound 0.0316 µM, first compound 0.000999 µM
[38] = second compound 0.0316 µM, first compound 0.00316 µM
[39] = second compound 0.0316 µM, first compound 0.00999 µM
[40] = second compound 0.0316 µM, first compound 0.0999 µM
[41] = second compound 0.1 µM, first compound 0.000999 µM
[42] = second compound 0.1 µM, first compound 0.00316 µM
[43] = second compound 0.1 µM, first compound 0.00999 µM
[44] = second compound 0.1 µM, first compound 0.0999 µM
[45] = second compound 0.316 µM, first compound 0.000999 µM
[46] = second compound 0.316 µM, first compound 0.00316 µM
[47] = second compound 0.316 µM, first compound 0.00999 µM
[48] = second compound 0.316 µM, first compound 0.0999 µM
[49] = second compound 1 µM, first compound 0.000999 µM
[50] = second compound 1 µM, first compound 0.00316 µM
[51] = second compound 1 µM, first compound 0.00999 µM
[52] = second compound 1 µM, first compound 0.0999 µM
[53] = second compound 3.16 µM, first compound 0.000999 µM
[54] = second compound 3.16 µM, first compound 0.00316 µM
[55] = second compound 3.16 µM, first compound 0.00999 µM
[56] = second compound 3.16 µM, first compound 0.0999 µM
[57] = second compound 10 µM, first compound 0.000999 µM
[58] = second compound 10 µM, first compound 0.00316 µM
[59] = second compound 10 µM, first compound 0.00999 µM
[60] = second compound 10 µM, first compound 0.0999 µM
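Note: spheroids exposed to compounds for seven days.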

With `C=CC(=O)N1CCN(c2nc(=O)n(-c3c(C)ccnc3C(C)C)c3nc(-c4c(O)cccc4F)c(F)cc23)C(C)C1` (stereo not drawn) + Cc1cnc(CNC(=O)c2c(=O)c3ccc(N4CCCN(C)CC4)nc3n3c2sc2ccccc23)cn1 the IC50 (second compound 0.0316 µM) was > 10000 nM, the IC50 (second compound 0.1 µM) was 8780 nM and the IC50 (second compound 0.316 µM) was > 10000 nM. For the same compound, the IC50 (second compound 1 µM) was < 31.6 nM, the IC50 (second compound 3.16 µM) was < 31.6 nM and the IC50 (second compound 10 µM) was < 31.6 nM. The viability, T/C [1] was 79.5%, the viability, T/C [2] was 78.9% and the viability, T/C [3] was 92.1%. It also gave a viability, T/C [4] of 88.5%, a viability, T/C [5] of 98.4% and a viability, T/C [6] of 83.2%. It also gave a viability, T/C [7] of 54.7%, a viability, T/C [8] of 78% and a viability, T/C [9] of 53.6%. It also gave a viability, T/C [10] of 64.6%, a viability, T/C [11] of 58.8% and a viability, T/C [12] of 48.9%. It also gave a viability, T/C [13] of 48.3%, a viability, T/C [14] of 71.5% and a viability, T/C [15] of 64.3%. For the same compound, the viability, T/C [16] was 65.5%, the viability, T/C [17] was 70.8% and the viability, T/C [18] was 49.3%. For the same compound, the viability, T/C [19] was 41%, the viability, T/C [20] was 52.3% and the viability, T/C [21] was 42.5%. For the same compound, the viability, T/C [22] was 66.3%, the viability, T/C [23] was 59.9% and the viability, T/C [24] was 47.7%. The viability, T/C [25] was 35.3%, the viability, T/C [26] was 48.6% and the viability, T/C [27] was 39.6%. It also gave a viability, T/C [28] of 47.5%, a viability, T/C [29] of 47.5% and a viability, T/C [30] of 37.5%. It also gave a viability, T/C [31] of 20.8%, a viability, T/C [32] of 23.7% and a viability, T/C [33] of 31.4%. For the same compound, the viability, T/C [34] was 42%, the viability, T/C [35] was 23.3% and the viability, T/C [36] was 22.7%.
In the case of `CCc1c2c(nc3ccc(O)cc13)-c1cc3c(c(=O)n1C2)COC(=O)[C@]3(O)CC` + Cc1cnc(CNC(=O)c2c(=O)c3ccc(N4CCCN(C)CC4)nc3n3c2sc2ccccc23)cn1, the IC50 (second compound 0.0316 µM) is reported as 9.23 nM, the IC50 (second compound 0.1 µM) is reported as 8.3 nM and the IC50 (second compound 0.316 µM) is reported as < 0.999 nM. The IC50 (second compound 1 µM) was < 0.999 nM, the IC50 (second compound 3.16 µM) was < 0.999 nM and the IC50 (second compound 10 µM) was < 0.999 nM. For the same compound, the viability, T/C [37] was 73.2%, the viability, T/C [38] was 60.8% and the viability, T/C [39] was 53.2%. The viability, T/C [1] was 29.8%, the viability, T/C [40] was 31.9% and the viability, T/C [3] was 18%. It also gave a viability, T/C [41] of 50%, a viability, T/C [42] of 64.9% and a viability, T/C [43] of 45.7%. The viability, T/C [7] was 36.7%, the viability, T/C [44] was 29.3% and the viability, T/C [9] was 16.1%. For the same compound, the viability, T/C [45] was 41.4%, the viability, T/C [46] was 58.4% and the viability, T/C [47] was 38.2%. It also gave a viability, T/C [13] of 34.8%, a viability, T/C [48] of 19.9% and a viability, T/C [15] of 14%. It also gave a viability, T/C [49] of 38.8%, a viability, T/C [50] of 41.4% and a viability, T/C [51] of 31.3%. The viability, T/C [19] was 23.8%, the viability, T/C [52] was 18.4% and the viability, T/C [21] was 6.84%. For the same compound, the viability, T/C [53] was 37.4%, the viability, T/C [54] was 43.7% and the viability, T/C [55] was 28.8%. It also gave a viability, T/C [25] of 20.1%, a viability, T/C [56] of 8.56% and a viability, T/C [27] of 0.57%. For the same compound, the viability, T/C [57] was 29.2%, the viability, T/C [58] was 14.6% and the viability, T/C [59] was 13.3%. The viability, T/C [31] was 0.4%, the viability, T/C [60] was 0.25% and the viability, T/C [33] was 0.2%.
`Cc1cccc(N(C)C(=O)C2C(O)CCN2c2nc(C)cc(C(F)(F)F)c2C#N)c1` (stereo not drawn) + Cc1cnc(CNC(=O)c2c(=O)c3ccc(N4CCCN(C)CC4)nc3n3c2sc2ccccc23)cn1 was tested, and the IC50 (second compound 0.0316 µM) was > 10000 nM, the IC50 (second compound 0.1 µM) was > 10000 nM and the IC50 (second compound 0.316 µM) was 31.6 nM. For the same compound, the IC50 (second compound 1 µM) was < 31.6 nM, the IC50 (second compound 3.16 µM) was < 31.6 nM and the IC50 (second compound 10 µM) was < 31.6 nM. It also gave a viability, T/C [1] of 105%, a viability, T/C [2] of 81.5% and a viability, T/C [3] of 86.5%. For the same compound, the viability, T/C [4] was 74.2%, the viability, T/C [5] was 95.6% and the viability, T/C [6] was 107%. The viability, T/C [7] was 70%, the viability, T/C [8] was 73.8% and the viability, T/C [9] was 57.7%. It also gave a viability, T/C [10] of 69.6%, a viability, T/C [11] of 72.9% and a viability, T/C [12] of 71.6%. It also gave a viability, T/C [13] of 53.3%, a viability, T/C [14] of 56% and a viability, T/C [15] of 49.2%. For the same compound, the viability, T/C [16] was 57.4%, the viability, T/C [17] was 74.9% and the viability, T/C [18] was 55.8%. It also gave a viability, T/C [19] of 44.1%, a viability, T/C [20] of 44.4% and a viability, T/C [21] of 50.5%. The viability, T/C [22] was 44.6%, the viability, T/C [23] was 57.5% and the viability, T/C [24] was 41.7%. For the same compound, the viability, T/C [25] was 38.1%, the viability, T/C [26] was 42% and the viability, T/C [27] was 41.3%. For the same compound, the viability, T/C [28] was 49.3%, the viability, T/C [29] was 39.9% and the viability, T/C [30] was 41.5%. The viability, T/C [31] was 40.6%, the viability, T/C [32] was 37.4% and the viability, T/C [33] was 43.3%. For the same compound, the viability, T/C [34] was 44.4%, the viability, T/C [35] was 26.2% and the viability, T/C [36] was 36.4%.
For `Cn1ncnc1[C@H]1c2n[nH]c(=O)c3cc(F)cc(c23)N[C@@H]1c1ccc(F)cc1` + Cc1cnc(CNC(=O)c2c(=O)c3ccc(N4CCCN(C)CC4)nc3n3c2sc2ccccc23)cn1, the IC50 (second compound 0.0316 µM) was > 316 nM, the IC50 (second compound 0.1 µM) was > 316 nM and the IC50 (second compound 0.316 µM) was > 316 nM. For the same compound, the IC50 (second compound 1 µM) was < 0.999 nM, the IC50 (second compound 3.16 µM) was < 0.999 nM and the IC50 (second compound 10 µM) was < 0.999 nM. The viability, T/C [37] was 93.1%, the viability, T/C [38] was 80.8% and the viability, T/C [39] was 92.5%. The viability, T/C [1] was 81.9%, the viability, T/C [40] was 87.2% and the viability, T/C [3] was 105%. For the same compound, the viability, T/C [41] was 69.1%, the viability, T/C [42] was 76% and the viability, T/C [43] was 53.6%. For the same compound, the viability, T/C [7] was 68.6%, the viability, T/C [44] was 72.8% and the viability, T/C [9] was 86.9%. For the same compound, the viability, T/C [45] was 52.5%, the viability, T/C [46] was 63.1% and the viability, T/C [47] was 50.6%. The viability, T/C [13] was 50.5%, the viability, T/C [48] was 53.5% and the viability, T/C [15] was 58.1%. It also gave a viability, T/C [49] of 44.6%, a viability, T/C [50] of 50.3% and a viability, T/C [51] of 43.6%. It also gave a viability, T/C [19] of 48.6%, a viability, T/C [52] of 62.6% and a viability, T/C [21] of 42%. The viability, T/C [53] was 43.4%, the viability, T/C [54] was 45.2% and the viability, T/C [55] was 43.5%. For the same compound, the viability, T/C [25] was 44.7%, the viability, T/C [56] was 47.8% and the viability, T/C [27] was 39%. For the same compound, the viability, T/C [57] was 42.8%, the viability, T/C [58] was 40.2% and the viability, T/C [59] was 37.7%. For the same compound, the viability, T/C [31] was 46.3%, the viability, T/C [60] was 26.6% and the viability, T/C [33] was 32.8%.
